# Tests used:
# Male ICR mice [1] = details: mouse, in vivo, iv, 0.7 mg/kg
# Male ICR mice [2] = details: mouse, in vivo, iv
# Male ICR mice [3] = details: mouse, in vivo, iv; remark: listed apart in the source
# [4] = assay type: physicochemical
structure (smiles),measurement,setting,value
"CCCCCc1cc(O)c2c(c1)OC(C)(C)[C@@H]1CCC(C)=C[C@@H]21 [THC, Δ^9-Tetrahydrocannabinol]",TI,Male ICR mice [1],47
same,inactive dose,Male ICR mice [2],0.7 mg/kg
same,LD50 [95% CL's],Male ICR mice [3],75.4 [66.5-85.5] mg/kg
same,recovery from aerosol,[4],~87.5%
